Data taken from ChEMBL document CHEMBL6153147 (J Med Chem, 2025).

Legend:
[1] = Selectivity ratio of IC50 for inhibition of human PLK2 using ATF2 as substrate to IC50 for inhibition of human PLK1 using ATF2 as substrate
[2] = molecular target: Serine/threonine-protein kinase PLK3 (Homo sapiens, UniProt Q9H4B4); experiment: Inhibition of human PLK3 using ATF2 as substrate incubated for 40 mins in presence of [gamma-33P]ATP/Mg acetate by scintillation counting analysis
[3] = molecular target: Serine/threonine-protein kinase PLK1 (Homo sapiens, UniProt P53350); experiment: Inhibition of human PLK1 using ATF2 as substrate incubated for 40 mins in presence of [gamma-33P]ATP/Mg acetate by scintillation counting analysis
Chain of Serine/threonine-protein kinase PLK1 (P53350 whole entry): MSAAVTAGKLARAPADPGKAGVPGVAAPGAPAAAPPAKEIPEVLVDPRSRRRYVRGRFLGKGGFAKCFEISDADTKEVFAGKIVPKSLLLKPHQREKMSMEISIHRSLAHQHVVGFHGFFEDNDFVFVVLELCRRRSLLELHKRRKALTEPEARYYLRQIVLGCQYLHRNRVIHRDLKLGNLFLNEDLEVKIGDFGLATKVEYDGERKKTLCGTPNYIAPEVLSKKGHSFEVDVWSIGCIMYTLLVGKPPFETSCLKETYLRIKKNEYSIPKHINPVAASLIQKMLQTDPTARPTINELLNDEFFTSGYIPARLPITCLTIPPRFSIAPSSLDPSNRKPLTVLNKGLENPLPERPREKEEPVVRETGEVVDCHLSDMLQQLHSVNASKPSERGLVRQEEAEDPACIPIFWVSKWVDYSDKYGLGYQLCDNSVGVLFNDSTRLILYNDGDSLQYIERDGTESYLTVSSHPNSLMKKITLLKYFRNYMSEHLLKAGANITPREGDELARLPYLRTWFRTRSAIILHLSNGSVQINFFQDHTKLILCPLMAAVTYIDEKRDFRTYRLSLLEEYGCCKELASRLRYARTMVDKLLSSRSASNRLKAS

[4] = molecular target: Serine/threonine-protein kinase PLK2 (Homo sapiens, UniProt Q9NYY3); experiment: Inhibition of human PLK2 using ATF2 as substrate incubated for 40 mins in presence of [gamma-33P]ATP/Mg acetate by scintillation counting analysis
Chain of Serine/threonine-protein kinase PLK2 (Q9NYY3 whole entry): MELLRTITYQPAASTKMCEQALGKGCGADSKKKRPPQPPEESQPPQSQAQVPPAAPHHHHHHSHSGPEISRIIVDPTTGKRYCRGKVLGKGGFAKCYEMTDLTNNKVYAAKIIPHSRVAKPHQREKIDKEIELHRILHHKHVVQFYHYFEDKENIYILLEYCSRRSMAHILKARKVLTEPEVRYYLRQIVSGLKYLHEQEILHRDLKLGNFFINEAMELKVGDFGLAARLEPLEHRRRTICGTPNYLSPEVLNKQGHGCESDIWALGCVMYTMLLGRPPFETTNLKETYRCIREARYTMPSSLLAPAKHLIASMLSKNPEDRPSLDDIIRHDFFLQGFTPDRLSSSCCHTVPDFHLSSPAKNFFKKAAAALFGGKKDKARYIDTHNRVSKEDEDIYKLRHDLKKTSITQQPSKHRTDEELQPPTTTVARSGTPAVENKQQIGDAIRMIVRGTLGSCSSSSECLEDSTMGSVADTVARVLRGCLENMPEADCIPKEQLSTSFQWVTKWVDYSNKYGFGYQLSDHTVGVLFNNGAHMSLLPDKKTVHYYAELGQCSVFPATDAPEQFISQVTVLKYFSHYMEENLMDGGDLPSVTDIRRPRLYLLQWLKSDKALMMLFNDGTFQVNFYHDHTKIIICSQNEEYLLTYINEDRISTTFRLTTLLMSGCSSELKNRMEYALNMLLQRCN

[5] = Selectivity ratio of IC50 for inhibition of human PLK3 using ATF2 as substrate to IC50 for inhibition of human PLK1 using ATF2 as substrate
NCI-H460 = experiment: cells; conditions: Homo sapiens
K562 = experiment: cells; conditions: Homo sapiens
SW-620 = experiment: cells; conditions: Homo sapiens
HL-60 = experiment: cells; conditions: Homo sapiens
PC-9 = experiment: cells; conditions: Homo sapiens
CCRF-CEM = experiment: cells; conditions: Homo sapiens
A549 = experiment: cells; conditions: Homo sapiens
KG-1 = experiment: cells; conditions: Homo sapiens

Chain of Serine/threonine-protein kinase PLK3 (Q9H4B4 whole entry): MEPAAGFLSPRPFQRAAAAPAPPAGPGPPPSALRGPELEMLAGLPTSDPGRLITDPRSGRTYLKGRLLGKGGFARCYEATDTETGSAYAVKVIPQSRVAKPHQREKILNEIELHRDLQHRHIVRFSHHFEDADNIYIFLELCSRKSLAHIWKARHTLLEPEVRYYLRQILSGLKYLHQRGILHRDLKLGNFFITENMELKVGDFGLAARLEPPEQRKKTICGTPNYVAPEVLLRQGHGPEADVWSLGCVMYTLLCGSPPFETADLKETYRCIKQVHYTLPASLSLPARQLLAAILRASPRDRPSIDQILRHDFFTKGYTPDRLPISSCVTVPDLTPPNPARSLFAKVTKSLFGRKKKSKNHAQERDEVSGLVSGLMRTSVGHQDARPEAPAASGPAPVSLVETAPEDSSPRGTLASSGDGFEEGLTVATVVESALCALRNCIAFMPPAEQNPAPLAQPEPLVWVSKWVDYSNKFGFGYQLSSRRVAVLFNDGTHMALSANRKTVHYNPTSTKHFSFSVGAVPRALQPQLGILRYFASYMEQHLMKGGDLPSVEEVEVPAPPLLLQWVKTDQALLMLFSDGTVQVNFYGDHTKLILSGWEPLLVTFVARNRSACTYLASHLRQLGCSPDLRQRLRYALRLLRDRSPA

Compound	ratio [1]	IC50 [2]	IC50 [3]	IC50 [4]	ratio [5]	IC50 (NCI-H460)	IC50 (K562)	IC50 (SW-620)	IC50 (HL-60)	IC50 (PC-9)	IC50 (CCRF-CEM)	IC50 (A549)	IC50 (KG-1)
CC[C@@H]1C(=O)N(C)c2cnc(Nc3cc(N4CCN(C)CC4)cc(Cl)c3OCCO)nc2N1C1CCCC1	764	5760 nM	11 nM	7850 nM	576								
CC[C@@H]1C(=O)N(C)c2cnc(Nc3cc(N4CCN(C)CC4)ccc3OC)nc2N1C1CCCC1	12	635 nM	21 nM	255 nM	30								
CN1CCN(c2ccc(OC(F)(F)F)c(Nc3ncc4c(n3)-c3c(c(C(N)=O)nn3CCO)CC4)c2)CC1 [ONVANSERTIB]						36 nM	12 nM	18 nM	89 nM	58 nM	34 nM	45 nM	8660 nM
CC[C@@H]1C(=O)N(C)c2cnc(Nc3cc(N4CCN(C)CC4)cc(Cl)c3OC)nc2N1C1CCCC1	27	778 nM	12 nM	325 nM	64								
CC[C@@H]1C(=O)N(C)c2cnc(Nc3cc(N4CCC(NC(=O)OC(C)(C)C)CC4)ccc3OC)nc2N1C1CCCC1	22	6450 nM	152 nM	3370 nM	43								
CC[C@@H]1C(=O)N(C)c2cnc(Nc3cc(N4CCNCC4)ccc3OCCCO)nc2N1C1CCCC1	> 435	5570 nM	23 nM	> 10000 nM	225								
CC[C@@H]1C(=O)N(C)c2cnc(Nc3cc(N4CCN(C)CC4)ccc3OCCO)nc2N1C1CCCC1	> 450	5670 nM	27 nM	> 10100 nM	245								
CC[C@@H]1C(=O)N(C)c2cnc(Nc3cc(N(C)CCN(C)C)cc(F)c3OC)nc2N1C1CCCC1	32	625 nM	13 nM	422 nM	48								
CC[C@@H]1C(=O)N(C)c2cnc(Nc3cc(N4CCN(C)CC4)cc(F)c3OCCCO)nc2N1C1CCNC1 (some centres undefined)			7460 nM										
CC[C@@H]1C(=O)N(C)c2cnc(Nc3cc(N4CCC(N)CC4)ccc3OC)nc2N1C1CCCC1	17	926 nM	29 nM	505 nM	32								
CC[C@@H]1C(=O)N(C)c2cnc(Nc3cc(N4CCNCC4)ccc3OCCO)nc2N1C1CCCC1	> 256	5830 nM	39 nM	> 10100 nM	150								
CC[C@@H]1C(=O)N(C)c2cnc(Nc3cc(N4CCN(C)CC4)ccc3OCCO)nc2N1C(C)C	> 303	> 10000 nM	33 nM	> 10000 nM	> 303								
CC[C@@H]1C(=O)N(C)c2cnc(Nc3cc(N4CCN(C(=O)OC(C)(C)C)CC4)ccc3OCCCO)nc2N1C1CCCC1	> 51	> 10000 nM	195 nM	> 10000 nM	> 51								
CC[C@@H]1C(=O)N(C)c2cnc(Nc3cc(N4CCN(C)CC4)cc(F)c3OC[C@H](C)O)nc2N1C(C)C	> 71	> 10000 nM	141 nM	> 10000 nM	> 71								
CC[C@@H]1C(=O)N(C)c2cnc(Nc3cc(N4CCN(C)CC4)ccc3OCCCO)nc2N1C(C)C	> 300	> 10000 nM	22 nM	> 10000 nM	> 300								
CC[C@@H]1C(=O)N(C)c2cnc(Nc3cc(N4CCN(C)CC4)cc(Cl)c3OC)nc2N1C(C)C	314	3990 nM	18 nM	5560 nM	221								
CC[C@@H]1C(=O)N(C)c2cnc(Nc3cc(N4CCN(CC)CC4)ccc3OCCO)nc2N1C1CCCC1	> 370	6980 nM	27 nM	> 10000 nM	258								
CC[C@@H]1C(=O)N(C)c2cnc(Nc3cc(N4CCN(C)CC4)cc(Cl)c3OCCO)nc2N1C1CCNC1 (some centres undefined)			9250 nM										
CC[C@@H]1C(=O)N(C)c2cnc(Nc3cc(N4CCN(C)CC4)cc(F)c3OCCO)nc2N1C1CCCC1	> 952	3220 nM	11 nM	> 10000 nM	306	76 nM	5190 nM	6.8 nM	39 nM	82 nM	64 nM	57 nM	> 10000 nM

Compound	ratio [1]	IC50 [2]	IC50 [3]	IC50 [4]	ratio [5]	IC50 (NCI-H460)	IC50 (K562)	IC50 (SW-620)	IC50 (HL-60)	IC50 (PC-9)	IC50 (CCRF-CEM)	IC50 (A549)	IC50 (KG-1)
CC[C@@H]1C(=O)N(C)c2cnc(Nc3cc(N4CCNCC4)ccc3OCCCO)nc2N1C(C)C	> 250	> 10000 nM	40 nM	> 10000 nM	> 250								
CC[C@@H]1C(=O)N(C)c2cnc(Nc3cc(N4CCN(CC)CC4)cc(F)c3OC)nc2N1C1CCCC1	51	1290 nM	12 nM	610 nM	107								
CC[C@@H]1C(=O)N(C)c2cnc(Nc3cc(N4CCC(NC(=O)OC(C)(C)C)CC4)ccc3OCCCO)nc2N1C1CCCC1	> 104	> 10000 nM	97 nM	> 10000 nM	> 104								
CC[C@@H]1C(=O)N(C)c2cnc(Nc3cc(N4CCN(C)CC4)cc(Cl)c3OCCCO)nc2N1C(C)C	> 333	> 10000 nM	20 nM	> 10000 nM	> 333								
CC[C@@H]1C(=O)N(C)c2cnc(Nc3cc(N4CCN(CC)CC4)ccc3OCCO)nc2N1C(C)C	> 135	> 10000 nM	74 nM	> 10000 nM	> 135								
CC[C@@H]1C(=O)N(C)c2cnc(Nc3cc(N4CCN(C(=O)OC(C)(C)C)CC4)ccc3OCCO)nc2N1C1CCCC1	> 73	> 10000 nM	138 nM	> 10000 nM	> 73								
CC[C@@H]1C(=O)N(C)c2cnc(Nc3cc(N4CCN(CC)CC4)ccc3OCCCO)nc2N1C1CCCC1	> 357	4910 nM	26 nM	> 10000 nM	175								
CC[C@@H]1C(=O)N(C)c2cnc(Nc3cc(N4CCC(N)CC4)ccc3OCCCO)nc2N1C1CCCC1	> 319	6010 nM	31 nM	> 10000 nM	192								
CC[C@@H]1C(=O)N(C)c2cnc(Nc3cc(N4CCN(C)CC4)cc(F)c3OC[C@H](C)O)nc2N1C1CCCC1	> 658	3670 nM	15 nM	> 10000 nM	373	326 nM	7.7 nM	18 nM	54 nM	1990 nM	63 nM	1540 nM	588 nM
CC[C@@H]1C(=O)N(C)c2cnc(Nc3cc(N4CCC(N)CC4)ccc3OCCO)nc2N1C1CCCC1	> 292	> 10000 nM	34 nM	> 10000 nM	> 292								
CC[C@@H]1C(=O)N(C)c2cnc(Nc3cc(N(C)CCN(C)C)cc(F)c3OCCCO)nc2N1C1CCCC1	292	1460 nM	20 nM	5870 nM	72								
CC[C@@H]1C(=O)N(C)c2cnc(Nc3cc(N4CCN(C)CC4)cc(F)c3OCCCO)nc2N1C(C)C	> 625	9370 nM	16 nM	> 10000 nM	586	95 nM	7.7 nM	83 nM	77 nM	250 nM	112 nM	492 nM	342 nM
CC[C@@H]1C(=O)N(C)c2cnc(Nc3cc(N4CCN(C)CC4)cc(Cl)c3OCCO)nc2N1C(C)C	> 208	> 10000 nM	48 nM	> 10000 nM	> 208								
CC[C@@H]1C(=O)N(C)c2cnc(Nc3cc(N4CCN(C)CC4)cc(F)c3OC)nc2N1C1CCCC1	42	1180 nM	11 nM	459 nM	108								
CC[C@@H]1C(=O)N(C)c2cnc(Nc3cc(N4CCC(NC(=O)OC(C)(C)C)CC4)ccc3OCCO)nc2N1C1CCCC1	> 67.1	> 10000 nM	149 nM	> 10000 nM	> 67.1								
CC[C@@H]1C(=O)N(C)c2cnc(Nc3cc(N4CCN(CC)CC4)cc(F)c3OCCO)nc2N1C1CCCC1	> 500	> 10000 nM	20 nM	> 10000 nM	> 500								
CC[C@@H]1C(=O)N(C)c2cnc(Nc3cc(N4CCN(C)CC4)cc(F)c3OCCO)nc2N1C(C)C	> 330	> 10000 nM	30 nM	> 10000 nM	> 330								
CC[C@@H]1C(=O)N(C)c2cnc(Nc3cc(N4CCNCC4)ccc3OCCO)nc2N1C(C)C	> 99	> 10000 nM	101 nM	> 10000 nM	> 99								
CC[C@@H]1C(=O)N(C)c2cnc(Nc3cc(N4CCN(C)CC4)cc(F)c3OC)nc2N1C(C)C	412	5160 nM	16 nM	6600 nM	322								
